From paper PMC12671136, “Antimicrobial peptides disrupting the bacterial membrane reduce Salmonella colonization in chickens” (Microbiology Spectrum, 2025)
Values after ≈ are worked out from the molar mass of the structure shown. Peptide text beside a SMILES is read from it.

Key:
Assay type in all cases: cell-based
[1] = tested on: Salmonella Typhimurium (ST); details: for MIC: murium (ST, 12 h)
Description: (§1) The inhibitory effect of the peptides was assessed as described previously ([23]). ST was grown overnight and adjusted to 5 × 10^5 CFU/ml, and 100 µL of this measured concentration was placed into the wells of a 96-well plate. Peptides P1–P6 were added to the well at 12 mM concentration, and the plate was incubated in a TECAN Sunrise^TM absorbance microplate reader at 37°C, with kinetic absorbance measurements taken every 30 min for 12 h. The growth inhibitory activity was calculated with the formula (OD600 DMSO-treated well − OD600 peptide-treated well)/OD600 DMSO-treated well × 100%. Wells treated with DMSO and containing Salmonella, as well as sterile media wells without Salmonella, were used as controls. At least two independent experiments were conducted.
(§2) MIC was determined as the peptide concentration at which no increase in growth (no increase in OD) was observed, indicating complete inhibition of ST growth. Additionally, to test the efficacy of peptides against another serovar, the assay was conducted using SE, with peptides added at 15 mM and 18 mM concentrations. Following incubation (37°C, 12 h), cultures were plated on the LB agar plate to confirm the bactericidal effect. At least two independent experiments were conducted.
(§3) To analyze the perceived efficacy of arginine and lysine substitutes reported in previous studies ([36], [37]), specific amino acid residues in P1 and P2 were replaced with lysine or arginine and tested if the substitutions enhanced anti-Salmonella (ST and SE) activity. The MICs of the arginine or lysine substituted peptides ([…], […], […], KDENK, PDEKK, KDEKK) were determined as described above. At least two independent experiments were conducted.

[2] = tested on: Salmonella Enteritidis (SE); details: 12 h
Description: as §1, §2, §3

[3] = tested on: Salmonella Typhimurium (ST); details: murium (ST)
Description: (§4) P1, P2, and P4 were heated for 6 min at 86°C ([21]) or treated with protease proteinase K (200 µg/ml) at 50°C for 30 min ([26]). Afterward, the treated and/or heated peptides at their respective MICs were evaluated in the inhibition assay with Salmonella. The protocol from above using the TECAN microplate reader was followed with the same controls.

[4] = tested on: Salmonella Enteritidis (SE)
Description: as §4

Salmonella Albany = tested on: Salmonella Albany
Description: (§5) To further test the spectrum of the peptides’ anti-Salmonella capabilities, eight additional Salmonella serovars commonly implicated in foodborne illness (S. Anatum, S. Albany, S. Brenderup, S. Javiana, S. Heidelberg, S. Muenchen, S. Newport, S. Saintpaul) were investigated (Table S1). P1, P2, and P4 (selected based on dose-response assay results) were added to the assay at their MICs to determine their effect on different serovars. Inhibition was determined using the criteria described above.

Salmonella Saintpaul = tested on: Salmonella Saintpaul
Description: as §5

Salmonella Javiana = tested on: Salmonella Javiana
Description: as §5

Salmonella Anatum = tested on: Salmonella Anatum
Description: as §5

Salmonella Newport = tested on: Salmonella Newport
Description: as §5

Salmonella Brenderup = tested on: Salmonella Brenderup
Description: as §5

Salmonella Heidelberg = tested on: Salmonella Heidelberg
Description: as §5

Salmonella Muenchen = tested on: Salmonella Muenchen
Description: as §5

Structure (SMILES)	MIC [1]	MIC [2]	MIC (mM) against ST, Heat treatment [3]	MIC (mM) against ST, Protease treatment [3]	MIC (mM) against SE, Heat treatment [4]	MIC (mM) against SE, Protease treatment [4]	Efficacy against Salmonella Albany (concentration inhibiting completely, MIC) (Salmonella Albany)	Efficacy against Salmonella Saintpaul (concentration inhibiting completely, MIC) (Salmonella Saintpaul)	Efficacy against Salmonella Javiana (concentration inhibiting completely, MIC) (Salmonella Javiana)	Efficacy against Salmonella Anatum (concentration inhibiting completely, MIC) (Salmonella Anatum)	Efficacy against Salmonella Newport (concentration inhibiting completely, MIC) (Salmonella Newport)	Efficacy against Salmonella Brenderup (concentration inhibiting completely, MIC) (Salmonella Brenderup)	Efficacy against Salmonella Heidelberg (concentration inhibiting completely, MIC) (Salmonella Heidelberg)	Efficacy against Salmonella Muenchen (concentration inhibiting completely, MIC) (Salmonella Muenchen)	MIC (mM) against SE, No treatment [2]	further results
N=C(N)NCCC[C@H](NC(=O)[C@H](CCCNC(=N)N)NC(=O)[C@H](CCC(=O)O)NC(=O)[C@H](CCCNC(=N)N)NC(=O)[C@H](CCCNC(=N)N)NC(=O)[C@H](CCCNC(=N)N)NC(=O)[C@@H]1CCCN1C(=O)[C@@H](N)CC(N)=O)C(=O)O (H-NPRRRERR-OH)	15 mM (≈ 17.1 mg/mL)	>18 mM	–	–	–	–	–	–	–	–	–	–	–	–	–	–
NCCCC[C@H](NC(=O)[C@H](CC(N)=O)NC(=O)[C@H](CCC(=O)O)NC(=O)[C@H](CC(=O)O)NC(=O)[C@@H]1CCCN1)C(=O)O [Peptide P2] (H-PDENK-OH)	–	–	15 mM (≈ 9.02 mg/mL)	15 mM (≈ 9.02 mg/mL)	15 mM (≈ 9.02 mg/mL)	15 mM (≈ 9.02 mg/mL)	15 mM	15 mM	15 mM	15 mM	15 mM	15 mM	15 mM	15 mM	15 mM (≈ 9.02 mg/mL)	–
N=C(N)NCCC[C@H](NC(=O)[C@H](CCCNC(=N)N)NC(=O)[C@H](CCC(=O)O)NC(=O)[C@H](CCC(N)=O)NC(=O)[C@H](CCCNC(=N)N)NC(=O)[C@H](CCCNC(=N)N)NC(=O)[C@@H]1CCCN1C(=O)[C@@H](N)CC(N)=O)C(=O)O (H-NPRRQERR-OH)	15 mM (≈ 16.7 mg/mL)	18 mM (≈ 20 mg/mL)	–	–	–	–	–	–	–	–	–	–	–	–	–	–
CC(C)[C@H](N)C(=O)N[C@@H](Cc1c[nH]cn1)C(=O)N[C@H](C(=O)N[C@@H](C)C(=O)N1CCC[C@H]1C(=O)N[C@@H](CCCCN)C(=O)O)[C@@H](C)O [Peptide P3] (H-VHTAPK-OH; N-terminus and C-terminus assumed)	–	–	–	–	–	–	–	–	–	–	–	–	–	–	–	Complete inhibition of ST growth ([1]; peptide 6, 12, 15 and 18 mM, 12 h, 37°C): Neither P3 nor P4 completely inhibited ST
N=C(N)NCCC[C@H](NC(=O)[C@H](CCCNC(=N)N)NC(=O)[C@H](CCC(=O)O)NC(=O)[C@H](CCCNC(=N)N)NC(=O)[C@H](CCCNC(=N)N)NC(=O)[C@H](CO)NC(=O)[C@@H]1CCCN1C(=O)[C@@H](N)CC(N)=O)C(=O)O (H-NPSRRERR-OH)	>18 mM	>18 mM	–	–	–	–	–	–	–	–	–	–	–	–	–	–
NCCCC[C@H](NC(=O)[C@H](CCCCN)NC(=O)[C@H](CCC(=O)O)NC(=O)[C@H](CC(=O)O)NC(=O)[C@@H](N)CCCCN)C(=O)O [KDEKK] (H-KDEKK-OH)	15 mM (≈ 9.7 mg/mL)	15 mM (≈ 9.7 mg/mL)	–	–	–	–	–	–	–	–	–	–	–	–	–	–
NCCCC[C@H](NC(=O)[C@H](CCCCN)NC(=O)[C@H](CCC(=O)O)NC(=O)[C@H](CC(=O)O)NC(=O)[C@@H]1CCCN1)C(=O)O [PDEKK] (H-PDEKK-OH)	15 mM (≈ 9.24 mg/mL)	–	–	–	–	–	–	–	–	–	–	–	–	–	–	–
CSCC[C@H](N)C(=O)N[C@@H](CC(C)C)C(=O)N[C@@H](CC(N)=O)C(=O)N[C@@H](CCC(=O)O)C(=O)N[C@@H](CCCNC(=N)N)C(=O)N[C@H](C(=O)N[C@@H](CCCCN)C(=O)O)C(C)C [Peptide P4] (H-MLNERVK-OH)	–	–	18 mM (≈ 16 mg/mL)	18 mM (≈ 16 mg/mL)	18 mM (≈ 16 mg/mL)	18 mM (≈ 16 mg/mL)	18 mM	18 mM	18 mM	18 mM	18 mM	18 mM	18 mM	18 mM	18 mM (≈ 16 mg/mL)	–
NCCCC[C@H](NC(=O)[C@H](CC(N)=O)NC(=O)[C@H](CCC(=O)O)NC(=O)[C@H](CC(=O)O)NC(=O)[C@@H](N)CCCCN)C(=O)O [KDENK] (H-KDENK-OH)	12 mM (≈ 7.59 mg/mL)	12 mM (≈ 7.59 mg/mL)	–	–	–	–	–	–	–	–	–	–	–	–	–	–
N=C(N)NCCC[C@H](NC(=O)[C@H](CCCNC(=N)N)NC(=O)[C@H](CCC(=O)O)NC(=O)[C@H](CCC(N)=O)NC(=O)[C@H](CCCNC(=N)N)NC(=O)[C@H](CO)NC(=O)[C@@H]1CCCN1C(=O)[C@@H](N)CC(N)=O)C(=O)O [Peptide P1] (H-NPSRQERR-OH)	–	–	18 mM (≈ 18.8 mg/mL)	18 mM (≈ 18.8 mg/mL)	18 mM (≈ 18.8 mg/mL)	18 mM (≈ 18.8 mg/mL)	18 mM	18 mM	18 mM	18 mM	18 mM	18 mM	18 mM	18 mM	18 mM (≈ 18.8 mg/mL)	–
